Measurements: US9211310B2, “Use of a Chinese medicine composition in preparing medicaments for treating secondary prevention of myocardial infarction” (TASLY PHARMACEUTICAL GROUP CO., LTD, priority 2010, dated 2015)

Test system: patients after acute myocardial infarction
Assay: TCM symptom score, total and single (chest pain, chest tightness, short breath, fatigue, palpitation, spontaneous perspiration, pale complexion), same clinical trial
Type: in vivo, human
Design: total score of TCM symptom, Mean / total score of TCM symptom, Min / total score of TCM symptom, Max / total score of TCM symptom, Md / change of total score of TCM symptom, Mean / change of total score of TCM symptom, Max / change of total score of TCM symptom, Md: scale not given here
Details: PP
Description: 3508 patients who were in accordance with the diagnostic standards of AMI for 28 days to 2 years and differentiated as Qi deficiency and blood stagnation syndrome by TCM were studied. 0.5 g Chinese medicine composition prepared by the method of EXAMPLE 1 (Coded as QSYQ) was administrated half an hour after meal, 3 times per day.
They included the overall survival time, angina pectoris score, TCM symptom score and life quality score, where angina pectoris score, TCM symptom score and life quality score were evaluated at randomization, in 1st, 3rd, 6th, 9th, 12th month after treatment and 18th month after follow-up.
The analysis method referred to the angina pectoris score.

[1] = 3 months after treatment-baseline
[2] = 6 months after treatment-baseline

For `CC(=O)Oc1ccccc1C(=O)O` [Control group, aspirine], the “change of short breath 2, number of patients” value [1] was 309, the “change of short breath 4, % of patients” value [1] was “(2.36%)” and the “change of short breath 4, number of patients” value [1] was 34. The “change of short breath 6, % of patients” value [1] was “(0.55%)”, the “change of short breath 6, number of patients” value [1] was 8 and the “change of short breath −2, % of patients” value [1] was “(5.27%)”. The “change of short breath −2, number of patients” value [1] was 76, the “change of short breath −4, % of patients” value [1] was “(0.14%)” and the “change of short breath −4, number of patients” value [1] was 2. The “change of short breath −6, % of patients” value [1] was “(0.00%)”, the “change of short breath −6, number of patients” value [1] was 0 and the “change of spontaneous perspiration 0, number of patients” value [1] was 898. For the same compound, the “change of spontaneous perspiration 0, percent of patients” value [1] was “(62.23%)”, the “change of spontaneous perspiration 1, number of patients” value [1] was 342 and the “change of spontaneous perspiration 1, percent of patients” value [1] was “(23.70%)”. The “change of spontaneous perspiration 2, number of patients” value [1] was 71, the “change of spontaneous perspiration 2, percent of patients” value [1] was “(4.92%)” and the “change of spontaneous perspiration 3, number of patients” value [1] was 16. The “change of spontaneous perspiration 3, percent of patients” value [1] was “(1.11%)”, the “change of spontaneous perspiration −1, number of patients” value [1] was 101 and the “change of spontaneous perspiration −1, percent of patients” value [1] was “(7.00%)”. The “change of spontaneous perspiration −2, number of patients” value [1] was 13, the “change of spontaneous perspiration −2, percent of patients” value [1] was “(0.90%)” and the “change of spontaneous perspiration −3, number of patients” value [1] was 2. For the same compound, the “change of spontaneous perspiration −3, percent of patients” value [1] was “(0.14%)”, the “distribution of total score of TCM symptom: Medium, number of patients” value (6 months after treatment) was 377 and the “distribution of total score of TCM symptom: Medium, percentage of patients” value (6 months after treatment) was “(26.40%)”. For the same compound, the “distribution of total score of TCM symptom: Mild, number of patients” value (6 months after treatment) was 1044, the “distribution of total score of TCM symptom: Mild, percentage of patients” value (6 months after treatment) was “(73.11%)” and the “distribution of total score of TCM symptom: Severe, number of patients” value (6 months after treatment) was 7. For the same compound, the “distribution of total score of TCM symptom: Severe, percentage of patients” value (6 months after treatment) was “(0.49%)”, the “fatigue score 0, % of patients” value (6 months after treatment) was “(31.00%)” and the “fatigue score 0, number of patients” value (6 months after treatment) was 443. For the same compound, the “fatigue score 2, % of patients” value (6 months after treatment) was “(61.65%)”, the “fatigue score 2, number of patients” value (6 months after treatment) was 881 and the “fatigue score 4, % of patients” value (6 months after treatment) was “(6.79%)”. For the same compound, the “fatigue score 4, number of patients” value (6 months after treatment) was 97, the “fatigue score 6, % of patients” value (6 months after treatment) was “(0.56%)” and the “fatigue score 6, number of patients” value (6 months after treatment) was 8. For the same compound, the “pale complexion score 0, number of patients” value (6 months after treatment) was 750, the “pale complexion score 0, percent of patients” value (6 months after treatment) was “(52.48%)” and the “pale complexion score 1, number of patients” value (6 months after treatment) was 540. For the same compound, the “pale complexion score 1, percent of patients” value (6 months after treatment) was “(37.79%)”, the “pale complexion score 2, number of patients” value (6 months after treatment) was 133 and the “pale complexion score 2, percent of patients” value (6 months after treatment) was “(9.31%)”. For the same compound, the “pale complexion score 3, number of patients” value (6 months after treatment) was 6, the “pale complexion score 3, percent of patients” value (6 months after treatment) was “(0.42%)” and the “palpitation score 0, number of patients” value (6 months after treatment) was 456. For the same compound, the “palpitation score 0, percent of patients” value (6 months after treatment) was “(31.91%)”, the “palpitation score 2, number of patients” value (6 months after treatment) was 764 and the “palpitation score 2, percent of patients” value (6 months after treatment) was “(53.46%)”. For the same compound, the “palpitation score 4, number of patients” value (6 months after treatment) was 192, the “palpitation score 4, percent of patients” value (6 months after treatment) was “(13.44%)” and the “palpitation score 6, number of patients” value (6 months after treatment) was 17. For the same compound, the “palpitation score 6, percent of patients” value (6 months after treatment) was “(1.19%)”, the “short breath score 0, % of patients” value (6 months after treatment) was “(25.21%)” and the “short breath score 0, number of patients” value (6 months after treatment) was 360. For the same compound, the “short breath score 2, % of patients” value (6 months after treatment) was “(0.07%)”, the “short breath score 2, number of patients” value (6 months after treatment) was 1 and the “short breath score 3, % of patients” value (6 months after treatment) was “(58.68%)”. The “short breath score 3, number of patients” value (6 months after treatment) was 838, the “short breath score 6, % of patients” value (6 months after treatment) was “(15.55%)” and the “short breath score 6, number of patients” value (6 months after treatment) was 222. The “short breath score 9, % of patients” value (6 months after treatment) was “(0.49%)”, the “short breath score 9, number of patients” value (6 months after treatment) was 7 and the “spontaneous perspiration score 0, number of patients” value (6 months after treatment) was 628. The “spontaneous perspiration score 0, percent of patients” value (6 months after treatment) was “(43.98%)”, the “spontaneous perspiration score 1, number of patients” value (6 months after treatment) was 676 and the “spontaneous perspiration score 1, percent of patients” value (6 months after treatment) was “(47.34%)”. The “spontaneous perspiration score 2, number of patients” value (6 months after treatment) was 117, the “spontaneous perspiration score 2, percent of patients” value (6 months after treatment) was “(8.19%)” and the “spontaneous perspiration score 3, number of patients” value (6 months after treatment) was 7. The “spontaneous perspiration score 3, percent of patients” value (6 months after treatment) was “(0.49%)”, the “total score of TCM symptom, Max” value (6 months after treatment) was 34.00 and the “total score of TCM symptom, Md” value (6 months after treatment) was 9.00. The “total score of TCM symptom, Mean” value (6 months after treatment) was 9.79, the “total score of TCM symptom, Min” value (6 months after treatment) was 0.00 and the “change of fatigue 0, % of patients” value [2] was “(55.47%)”. For the same compound, the “change of fatigue 0, number of patients” value [2] was 791, the “change of fatigue 2, % of patients” value [2] was “(30.01%)” and the “change of fatigue 2, number of patients” value [2] was 428. For the same compound, the “change of fatigue 4, % of patients” value [2] was “(6.80%)”, the “change of fatigue 4, number of patients” value [2] was 97 and the “change of fatigue 6, % of patients” value [2] was “(1.12%)”. For the same compound, the “change of fatigue 6, number of patients” value [2] was 16, the “change of fatigue −2, % of patients” value [2] was “(6.03%)” and the “change of fatigue −2, number of patients” value [2] was 86. The “change of fatigue −4, % of patients” value [2] was “(0.56%)”, the “change of fatigue −4, number of patients” value [2] was 8 and the “change of fatigue −6, % of patients” value [2] was “(0.00%)”. The “change of fatigue −6, number of patients” value [2] was 0, the “change of pale complexion 0, number of patients” value [2] was 1104 and the “change of pale complexion 0, percent of patients” value [2] was “(77.47%)”. For the same compound, the “change of pale complexion 1, number of patients” value [2] was 272, the “change of pale complexion 1, percent of patients” value [2] was “(19.09%)” and the “change of pale complexion −1, number of patients” value [2] was 49. For the same compound, the “change of pale complexion −1, percent of patients” value [2] was “(3.44%)”, the “change of palpitation 0, number of patients” value [2] was 842 and the “change of palpitation 0, percent of patients” value [2] was “(59.09%)”. The “change of palpitation 1, number of patients” value [2] was 431, the “change of palpitation 1, percent of patients” value [2] was “(30.25%)” and the “change of palpitation 2, number of patients” value [2] was 53. For the same compound, the “change of palpitation 2, percent of patients” value [2] was “(3.72%)”, the “change of palpitation 3, number of patients” value [2] was 7 and the “change of palpitation 3, percent of patients” value [2] was “(0.49%)”. The “change of palpitation −1, number of patients” value [2] was 88, the “change of palpitation −1, percent of patients” value [2] was “(6.18%)” and the “change of palpitation −2, number of patients” value [2] was 4. The “change of palpitation −2, percent of patients” value [2] was “(0.28%)”, the “change of short breath 0, % of patients” value [2] was “(63.53%)” and the “change of short breath 0, number of patients” value [2] was 906. For the same compound, the “change of short breath 2, % of patients” value [2] was “(27.14%)”, the “change of short breath 2, number of patients” value [2] was 387 and the “change of short breath 4, % of patients” value [2] was “(3.16%)”. For the same compound, the “change of short breath 4, number of patients” value [2] was 45, the “change of short breath 6, % of patients” value [2] was “(0.56%)” and the “change of short breath 6, number of patients” value [2] was 8. The “change of short breath −2, % of patients” value [2] was “(5.33%)”, the “change of short breath −2, number of patients” value [2] was 76 and the “change of short breath −4, % of patients” value [2] was “(0.14%)”. For the same compound, the “change of short breath −4, number of patients” value [2] was 2, the “change of short breath −6, % of patients” value [2] was “(0.14%)” and the “change of short breath −6, number of patients” value [2] was 2.
